Our source for the IC50 values is patent US20250170141A1, “MRGPRX2 MODULATORS AND RELATED METHODS OF TREATMENT” (Escient Pharmaceuticals, Inc., priority 2023, published 2025).

This assay concerns the target T1, human MRGPRX2 (Homo sapiens, UniProt Q96LB1).
T1 construct: expressed in transfected cells; host or cells: CHO cells, stably transfected (G418 and Hygromycin B selection)
T1 sequence (Q96LB1 1-330): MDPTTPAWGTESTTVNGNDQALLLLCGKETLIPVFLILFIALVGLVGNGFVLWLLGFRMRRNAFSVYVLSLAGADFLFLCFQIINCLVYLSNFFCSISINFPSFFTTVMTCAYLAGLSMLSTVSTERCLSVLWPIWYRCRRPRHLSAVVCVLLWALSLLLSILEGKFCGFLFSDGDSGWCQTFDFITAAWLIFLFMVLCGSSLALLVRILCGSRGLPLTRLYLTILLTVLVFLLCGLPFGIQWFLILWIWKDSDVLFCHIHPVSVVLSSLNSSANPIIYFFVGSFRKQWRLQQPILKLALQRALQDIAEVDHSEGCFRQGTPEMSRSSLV
Nature of the assay: MRGPRX2 activity: IP-One Gq HTRF assay in CHO cells, antagonism versus 0.3 uM Cortistatin-14. The class given is cell-based. Conditions: versus 0.3 uM Cortistatin-14 agonist, CHO cells expressing human MRGPRX2, read-out: MRGPRX2 Antagonist Activity. The procedure: CHO cells stably transfected to express human MRGPRX2 were maintained in an incubator at 37° C. with 5% CO2 and grown in F12 (HAM) media with 10% fetal bovine serum (FBS), 1% Glutamax, 1% penicillin/streptomycin, 800 μg/mL Geneticin (G418), and 300 μg/mL Hygromycin B.
Cells were plated in a 384-well assay plate at 20,000 cells per well in 12 μL of Opti-MEM and kept in an incubator overnight. On the day of the assay, compounds solubilized at 10 mM in DMSO were added as a 10-point curve (30 uM final top concentration with 1:3 serial dilutions) using a Tecan D300E digital dispenser. Agonists were diluted in assay buffer (final concentrations of 5.7 mM Tris-HCl, 43 mM NaCl, 50 mM LiCl, pH=8) and 2 μL of the agonist Cortistatin-14 (CPC Scientific, catalog CORT-002) are added to each well. Final concentrations of agonists were 0.3 μM Cortistatin. Final concentrations of DMSO were kept consistent across the plate. Plates were incubated in the dark for 1 h at 37° C. and then for 1 h at room temperature. IP-1 standards and HTRF detection reagents were added according to the IP-One—Gq Kit purchased from Cisbio (part number 62IPAPEJ) and incubated in the dark for 1 h at room temperature. The plate was read on a Molecular Devices SpectraMax iD5 plate reader. The HTRF ratio was calculated from the raw data and graphed using GraphPad Prism to calculate an IC50 value for each compound.
The activity ranges are denoted as follows: “+++++” denotes antagonist activity <100 nM; “++++” denotes antagonist activity between 100 and 500 nM; “+++” denotes activity between 501 and 1000 nM; “++” denotes activity between 1001 and 2500 nM; and “+” denotes activity >2500 nM.

SMILES strings stand for the structures. Some results are limits rather than exact numbers.

Turning to `O=S1(=O)N=C(NCc2ncccc2F)Nc2c(Oc3ccccc3Cl)c(F)cc(F)c21` [Compound 1-1, 5-(2-chlorophenoxy)-6,8-difluoro-3-(((3-fluoropyridin-2-yl)methyl)amino)-4H-benzo[e][1,2,4]thiadiazine 1,1-dioxide], the IC50 lay in the range of 0.1 to 0.5 µM.
The value for `O=S1(=O)N=C(NCc2ccccc2F)Nc2c1ccc(F)c2Oc1ccccc1Cl` [Compound 1-2, 5-(2-chlorophenoxy)-6-fluoro-3-((2-fluorobenzyl)amino)-4H-benzo[e][1,2,4]thiadiazine 1,1-dioxide] was below 0.1 µM; that for `COc1cccc(CNC2=NS(=O)(=O)c3ccc(F)c(Oc4ccccc4Cl)c3N2)c1` [Compound 1-3, 5-(2-chlorophenoxy)-6-fluoro-3-((3-methoxybenzyl)amino)-4H-benzo[e][1,2,4]thiadiazine 1,1-dioxide] was 0.1 to 0.5 µM; that for `Cc1ccc2c(c1Oc1ccccc1Cl)NC(NCc1ncccc1F)=NS2(=O)=O` [Compound 1-4, 5-(2-chlorophenoxy)-3-(((3-fluoropyridin-2-yl)methyl)amino)-6-methyl-4H-benzo[e][1,2,4]thiadiazine 1,1-dioxide] was below 0.1 µM.
In the case of `O=S1(=O)N=C(NCc2ncccc2F)Nc2c1cc(F)c(F)c2Oc1ccccc1Cl` [Compound 1-5, 5-(2-chlorophenoxy)-6,7-difluoro-3-(((3-fluoropyridin-2-yl)methyl)amino)-4H-benzo[e][1,2,4]thiadiazine 1,1-dioxide] it was below 0.1 µM; in that of `O=S1(=O)N=C(NCc2ncccc2Cl)Nc2c1cc(F)c(F)c2Oc1ccccc1Cl` [Compound 1-6, 5-(2-chlorophenoxy)-3-(((3-chloropyridin-2-yl)methyl)amino)-6,7-difluoro-4H-benzo[e][1,2,4]thiadiazine 1,1-dioxide], below 0.1 µM.
With `COc1cccnc1CNC1=NS(=O)(=O)c2cc(F)c(F)c(Oc3ccccc3Cl)c2N1` [Compound 1-7, 5-(2-chlorophenoxy)-6,7-difluoro-3-(((3-methoxypyridin-2-yl)methyl)amino)-4H-benzo[e][1,2,4]thiadiazine 1,1-dioxide], the IC50 was 0.1 to 0.5 µM.
In the case of `N#Cc1ccccc1Oc1c(F)ccc2c1NC(NCc1ncccc1F)=NS2(=O)=O` [Compound 1-8, 2-((6-fluoro-3-(((3-fluoropyridin-2-yl)methyl)amino)-1,1-dioxido-4H-benzo[e][1,2,4]thiadiazin-5-yl)oxy)benzonitrile] it was below 0.1 µM; in that of `O=S1(=O)N=C(NCc2ncccc2F)Nc2c1ccc(F)c2Oc1c(Cl)cccc1Cl` [Compound 1-9, 5-(2,6-dichlorophenoxy)-6-fluoro-3-(((3-fluoropyridin-2-yl)methyl)amino)-4H-benzo[e][1,2,4]thiadiazine 1,1-dioxide], below 0.1 µM; in that of `O=S1(=O)N=C(NCc2ncccc2F)Nc2c1ccc(F)c2Oc1cccc(Cl)c1Cl` [Compound 1-10, 5-(2,3-dichlorophenoxy)-6-fluoro-3-(((3-fluoropyridin-2-yl)methyl)amino)-4H-benzo[e][1,2,4]thiadiazine 1,1-dioxide], below 0.1 µM.
For `O=S1(=O)N=C(NCc2cccc(F)c2)Nc2c1ccc(F)c2Oc1ccccc1Cl` [Compound 1-11, 5-(2-chlorophenoxy)-6-fluoro-3-((3-fluorobenzyl)amino)-4H-benzo[e][1,2,4]thiadiazine 1,1-dioxide], the IC50 was below 0.1 µM.
In the case of `O=S1(=O)N=C(NCc2ccc(F)cc2)Nc2c1ccc(F)c2Oc1ccccc1Cl` [Compound 1-12, 5-(2-chlorophenoxy)-6-fluoro-3-((4-fluorobenzyl)amino)-4H-benzo[e][1,2,4]thiadiazine 1,1-dioxide] it was 0.1 to 0.5 µM; in that of `Cc1ccc(NC2=NS(=O)(=O)c3ccc(F)c(Oc4ccccc4Cl)c3N2)cc1` [Compound 1-13, 5-(2-chlorophenoxy)-6-fluoro-3-(p-tolylamino)-4H-benzo[e][1,2,4]thiadiazine 1,1-dioxide], above 2.5 µM.
